Assay results as given in BindingDB's records for doi:10.7270/Q2SJ1J25 (Burnham Center For Chemical Genomics, 2010).
pEC50: −log10 of the molar value.

Molecular target: Alkaline phosphatase, placental type (Homo sapiens, UniProt P05187)
Assay: PLAP enzyme activators, dose response, mouse IAP activator project, biochemical, uHTS hits (AID 488878)

Alkaline phosphatase, placental type, sequence (P05187 whole entry, looked up): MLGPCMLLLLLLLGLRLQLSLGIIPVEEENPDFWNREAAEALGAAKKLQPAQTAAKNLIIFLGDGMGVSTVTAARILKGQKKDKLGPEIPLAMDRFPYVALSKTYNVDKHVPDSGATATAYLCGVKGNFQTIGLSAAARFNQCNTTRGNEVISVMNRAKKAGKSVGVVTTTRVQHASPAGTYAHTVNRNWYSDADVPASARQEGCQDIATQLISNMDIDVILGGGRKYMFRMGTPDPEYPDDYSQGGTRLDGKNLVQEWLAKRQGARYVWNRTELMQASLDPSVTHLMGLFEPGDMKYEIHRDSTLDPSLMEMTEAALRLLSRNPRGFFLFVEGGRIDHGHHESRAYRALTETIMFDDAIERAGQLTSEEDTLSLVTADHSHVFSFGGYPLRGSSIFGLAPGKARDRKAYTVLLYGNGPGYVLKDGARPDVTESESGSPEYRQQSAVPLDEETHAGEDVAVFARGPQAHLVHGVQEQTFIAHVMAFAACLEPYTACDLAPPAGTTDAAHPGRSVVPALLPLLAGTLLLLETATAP

Compared with `CN(CCO)c1ccc(CN=Nc2ccc([N+](=O)[O-])cc2S(=O)(=O)Nc2ccccc2C(=O)O)cc1`, `Cc1cc(=O)[nH]c(N=NCc2ccc(O)c(O)c2)n1` [MLS001194906] is 0.41 log units lower in pEC50: 4.59 for the first, 4.18 for the second. The first is the more potent here.

Compared with `O=C(NN=CC1=CC(=O)C(=O)CC1)NN=CC1=CC(=O)C(=O)CC1` [1,3-bis[[(Z)-(3-hydroxy-4-oxocyclohexa-2,5-dien-1-ylidene)methyl]amino]urea], `Nc1c(/C=C2/C=CC(=O)C(O)=C2)c(=O)nc2sc(CC(=O)N3CCCC3)nn12` [MLS001139292] is 0.48 log units higher in pEC50: 4.53 for the first, 5.01 for the second. The second is the more potent here.

`O=C1CC(=O)c2c(O)cc(O)c(O)c2C1=O` [4,5,7,8-tetrahydroxy-1,2-naphthoquinone] and `O=C1C=CC(/C=C/c2nc(O)c([N+](=O)[O-])c(=O)[nH]2)C=C1O` (stereo not drawn) [SMR000524347] cannot be ordered by pEC50: less than 4.00 for the first, less than 4.00 for the second.

Compared with `O=c1ccc2cc3c([nH]c4ccc(Br)cc43)oc-2c1O` [9-bromo-4-hydroxy-6H-[1]benzopyrano[2,3-b]indol-3-one], `CS(=O)(=O)c1ccc2c(c1)sc1nc(=O)c(/C=C3/C=CC(=O)C(O)=C3)c(N)n12` [SMR000415838] is 0.54 log units lower in pEC50: 4.62 for the first, 4.08 for the second. The first is the more potent here.

Going from `Oc1ccc(CN=Nc2cc(N3CCCC3)nc(N3CCCC3)n2)cc1O` [(4Z)-4-[[2-(2,6-dipyrrolidin-1-ylpyrimidin-4-yl)hydrazinyl]methylidene]-2-hydroxycyclohexa-2,5-dien-1-one] to `Nc1c(/C=C2/C=CC(=O)C(O)=C2)c(=O)nc2sc(CC(=O)N3CCCCC3)nn12` [MLS001139223], the pEC50 rises from less than 4.00 to 4.63. The second is the more potent here.

`C#CCOCCOCCOCCNc1nc(N2CCN(C(=O)CCCCCCCCCCNC(=O)Cn3cc(CCCCCN)nn3)CC2)nc(N2CCN(C(=O)CCCCCCCCCCNC(=O)Cn3cc(C[C@@H](C)O)nn3)CC2)n1` [KG-TG] and `C#CCOCCOCCOCCNc1nc(N2CCN(C(=O)CCCCCCCCCCNC(=O)[C@@H](CCC(=O)O)n3cc(CCCCCN)nn3)CC2)nc(N2CCN(C(=O)CCCCCCCCCCNC(=O)[C@H]([C@@H](C)CC)n3cc(CCCCCN)nn3)CC2)n1` [KI-KE] cannot be ordered by pEC50: less than 4.00 for the first, less than 4.00 for the second.

Work on `C[C@@H]1O[C@@H](O[C@H]2[C@H](O)[C@@H](O)[C@H](Oc3c(-c4ccc(O)c(O)c4)oc4cc(O)cc(=O)c-4c3O)O[C@@H]2CO)[C@H](O)[C@H](O)[C@H]1O` [quercetin-3-rham(4)-gluc] yielded a pEC50 of 4.65.
